Data published in US10253007B2, “Taxanes compounds, preparation method therefor, and uses thereof” (Jiangsu Tasly Diyi Pharmaceutical Co., Ltd., priority 2013, dated 2019).
Like-named read-outs stand apart in the source and are kept apart here.

Experiments:
[1] = system: HCT 116 colon cancer; assay: MTT assay, proliferation inhibition; format: cell-based; conditions: Homo sapiens, read-out: Proliferation inhibition rate
From the text: (§1) 1. Cytotoxicity Assay Using Human Tumor Cell Lines
(§2) Paclitaxel was used as the positive drug.

[2] = system: HL60 leukemia; assay: MTT assay, proliferation inhibition; format: cell-based; conditions: Homo sapiens, HL-60, read-out: Proliferation inhibition rate
From the text: as §1, §2

[3] = system: A375 melanoma; assay: MTT assay, proliferation inhibition; format: cell-based; conditions: Homo sapiens, A-375, read-out: Proliferation inhibition rate
From the text: as §1, §2

[4] = system: MDA-MB-436 breast cancer; assay: MTT assay, proliferation inhibition; format: cell-based; conditions: Homo sapiens, read-out: Proliferation inhibition rate
From the text: as §1, §2

[5] = system: NCI-H460 non-small cell lung cancer; assay: MTT assay, proliferation inhibition; format: cell-based; conditions: Homo sapiens, read-out: Proliferation inhibition rate
From the text: as §1, §2

[6] = system: DU145 prostate cancer; assay: MTT assay, proliferation inhibition; format: cell-based; conditions: Homo sapiens, DU-145, read-out: Proliferation inhibition rate
From the text: as §1, §2

[7] = system: K562 leukemia; assay: MTT assay, proliferation inhibition; format: cell-based; conditions: Homo sapiens, read-out: Proliferation inhibition rate
From the text: as §1, §2

[8] = MTT assay, proliferation inhibition; format: cell-based; conditions: Homo sapiens, LN-18 gastric cancer, read-out: Proliferation inhibition rate
From the text: as §1, §2

[9] = system: MCF-7 breast cancer; assay: MTT assay, proliferation inhibition; format: cell-based; conditions: Homo sapiens, MCF7, read-out: Proliferation inhibition rate
From the text: as §1, §2

[10] = system: B16 melanoma; assay: MTT assay, proliferation inhibition; format: cell-based; conditions: read-out: Proliferation inhibition rate
From the text: as §1, §2

[11] = system: LNCaP prostate cancer; assay: MTT assay, proliferation inhibition; format: cell-based; conditions: Homo sapiens, read-out: Proliferation inhibition rate
From the text: as §1, §2

[12] = system: HeLa cervical cancer; assay: MTT assay, proliferation inhibition; format: cell-based; conditions: Homo sapiens, read-out: Proliferation inhibition rate
From the text: as §1, §2

[13] = system: A2780 ovarian cancer; assay: MTT assay, proliferation inhibition; format: cell-based; conditions: Homo sapiens, read-out: Proliferation inhibition rate
From the text: as §1, §2

[14] = system: A549 non-small cell lung cancer; assay: MTT assay, proliferation inhibition; format: cell-based; conditions: Homo sapiens, read-out: Proliferation inhibition rate
From the text: as §1, §2

[15] = system: BGC-823 gastric cancer; assay: MTT assay, proliferation inhibition; format: cell-based; conditions: Homo sapiens, read-out: Proliferation inhibition rate
From the text: as §1, §2

[16] = system: HT29 colon cancer; assay: MTT assay, proliferation inhibition; format: cell-based; conditions: Homo sapiens, HT-29, read-out: Proliferation inhibition rate
From the text: as §1, §2

[17] = In vivo oral bioavailability assay (pharmacokinetics); design: species or system S.D. rats; conditions: rat; for AUC(0-t): 0-24 hours; for MRT inf: read-out: MRT0-∞
From the text: 3. In Vivo Oral Bioavailability Assay
The compound PCMI-31 was synthesized and detected according to the methods provided in the present invention. The internal standard, paclitaxel, was purchased from China's National Institute for the Control of Pharmaceutical and Biological Products (NICPBP). Chromatography-grade acetonitrile was purchased from Sigma-Aldrich Inc. Tween 80 and ethyl acetate were purchased from Aladdin reagent Inc. Male S.D. rats were purchased from Beijing Weitonglihua Inc. and raised in animal house for two weeks.
200 mg of PCMI-31 was dissolved in 4 ml of a mixed solution of Tween 80 and anhydrous ethanol (1:1) to prepare a stock solution at 50 mg/ml and normal saline was added to adjust to a suitable concentration. 12 male S.D. rats (about 300 g of body weight) were taken and divided into two groups after overnight fasting. One group was treated with intravenous injection (5 mg/kg) and the other group was treated orally (60 mg/kg). Blood was sampled in the intravenous group at 0th min, 5th min, 10th min, 20th min, 40th min, 1st h, 2nd h, 4th h, 6th h, 8th h, 12th h, 24th h, while the oral group at 5th min, 15th min, 30th min, 45th min, 1st h, 2nd h, 4th h, 6th h, 8th h, 12th h, 24th h. After 10 min centrifugation of plasma at 4500 rpm, the upper serum was taken and transferred to the corresponding EP tube, placed in a −40° C. freezer for assay.
Agilent 1100 series configuration: Agilent G1313A HPLC autosampler device, 150 mm×2.1 mm C18 Thermo column (particle size 3 μm) reversed-phase column, detection wavelength at 230 nm, column temperature at 30° C., mobile phase of acetonitrile/water (7:3), a flow rate at 0.2 ml/min, injection volume of 20 μl. The mass spectrometry (MS) combined was Thermo Finnigan TSQ Quantum triple quadrupole configurated with electrospray ionization (ESI) in the positive ion mode. The parameters of MS analysis were as follows: spray chamber voltage, 4.0 kv; heated capillary temperature, 350° C.; protective gas (nitrogen); 20 psi; auxiliary gas (nitrogen): 5 psi; collision gas (argon); pressure: 1.5 mmTorr.; Collision energy: CA 17 eV; FA and IFA were 19 eV: IS was 15 eV.
Paclitaxel was selected as an internal standard with a retention time of 3.07 min. Retention time of PCMI-31 was 4.21 min. MS detection condition to PCMI-31 was set as follows: 915→634 m/z; paclitaxel as an internal standard. Detection conditions: 876→308m/z. The concentration range of the standard curve of PCMI-31 was 5-10,000 ng/ml (γ^2>0.99) and the minimum detection limit was 5 ng/ml.
100 μL of plasma samples were taken, into which 100 μL of the internal standard (paclitaxel, 500 ng/ml acetonitrile solution) was added, followed by addition of 3 ml of ethyl acetate after well homogenized via vortex, after 5 min shaking, centrifuging for 8 min at a rotating speed of 4500 rpm. The supernatant was transferred to a clean EP tube with nitrogen to blow to dry under heating condition. After reconstitution with 120 μl mobile phase (CH3CN/H2O=7:3), the solution was centrifuged at 12,000 rpm for 3 min, 100 μl of supernatant was taken and transferred to an autosampler vial. After LC-MS/MS detection, statistical data and pharmacokinetic parameters were processed by Xcallbur® (version 1.3) software (Thermo Finnigan).

[18] = male, S.D., plasma, intravenous administration 5 mg/kg
[19] = male, S.D., plasma, oral administration 60 mg/kg

**Q.** For `CO[C@H]1C(=O)[C@]2(C)[C@@H](OC(=O)N(C)C)C[C@H]3OC[C@@]3(OC(C)=O)[C@H]2[C@H](OC(=O)c2ccccc2)[C@]2(O)C[C@H](OC(=O)[C@H](O)[C@@H](NC(=O)OC(C)(C)C)c3ccccc3)C(C)=C1C2(C)C` [PCMI-31], which inhibition at 1 µM [1] is on record?
**A.** 60.7%

**Q.** What about the inhibition at 1 µM [2] of the same compound?
**A.** 97.8%

**Q.** And the inhibition at 1 µM [3]?
**A.** 88.4%

**Q.** And the inhibition at 1 µM [4]?
**A.** 86.3%

**Q.** What about the inhibition at 1 µM [5] of the same compound?
**A.** 87.7%

**Q.** And the inhibition at 1 µM [6]?
**A.** 85.8%

**Q.** What about the inhibition at 1 µM [7] of the same compound?
**A.** 93.2%

**Q.** And the inhibition at 1 µM [8]?
**A.** 95.6%

**Q.** What about the inhibition at 1 µM [9] of the same compound?
**A.** 90.8%

**Q.** And the inhibition at 1 µM [10]?
**A.** 81.8%

**Q.** What about the inhibition at 1 µM [11] of the same compound?
**A.** 82.2%

**Q.** What about the inhibition at 1 µM [12] of the same compound?
**A.** 103%

**Q.** And the inhibition at 1 µM [13]?
**A.** 95.6%

**Q.** What about the inhibition at 1 µM [14] of the same compound?
**A.** 76%

**Q.** What about the inhibition at 1 µM [15] of the same compound?
**A.** 96.2%

**Q.** And the inhibition at 1 µM [16]?
**A.** 89.4%

**Q.** And the half-life ([17]; male, S.D., plasma, other: oral or intravenous administration, generally, oral or intravenous administration, read-out: half-life (converted))?
**A.** ~3 h

**Q.** What about the AUC(0-t) ([17]; male, S.D., plasma, intravenous 5 mg/kg) of the same compound?
**A.** 3310 ± 1330 ng·h/mL

**Q.** What about the AUC(0-inf) [17, 18] of the same compound?
**A.** 3320 ± 1330 ng·h/mL

**Q.** What about the Cmax [17, 18] of the same compound?
**A.** 7990 ± 3470 ng/mL

**Q.** And the Tmax [17, 18]?
**A.** 0 h

**Q.** What about the MRT inf [17, 18] of the same compound?
**A.** 2.58 ± 0.87 h

**Q.** What about the half-life ([17]; male, S.D., plasma, intravenous administration 5 mg/kg, read-out: t1/2 (converted)) of the same compound?
**A.** 3.21 ± 0.53 h

**Q.** What about the AUC(0-t) ([17]; male, S.D., plasma, oral 60 mg/kg) of the same compound?
**A.** 4250 ± 2480 ng·h/mL

**Q.** And the AUC(0-inf) [17, 19]?
**A.** 4270 ± 2490 ng·h/mL

**Q.** What about the Cmax [17, 19] of the same compound?
**A.** 922 ± 561 ng/mL

**Q.** What about the Tmax [17, 19] of the same compound?
**A.** 0.8 ± 0.2 h

**Q.** And the MRT inf [17, 19]?
**A.** 4.33 ± 0.74 h

**Q.** And the half-life ([17]; male, S.D., plasma, oral administration 60 mg/kg, read-out: t1/2 (converted))?
**A.** 2.97 ± 0.55 h

**Q.** And the bioavailability ([17]; male, S.D., plasma, oral, 60 mg/kg, oral 60 mg/kg vs intravenous 5 mg/kg, read-out: F, absolute oral bioavailability)?
**A.** 10.7%

**Q.** And the “F, absolute oral bioavailability” value ([17]; oral 60 mg/kg vs intravenous 5 mg/kg)?
**A.** 10.71%
